Measured values from patent US6849612B2, “Oligonucleotide modulation of cell adhesion” (ISIS Pharmaceuticals, Inc., priority 1993, dated 2005).
Strand notation (5' to 3'): a small letter for the sugar, then the base; units joined by * are phosphorothioate-linked, units joined directly phosphodiester-linked; [ ] holds rarer units or linkages, { } end groups; capitals alone tell only the bases. d = 2'-deoxy (DNA)

How the values were obtained:
ICAM-1 mRNA = assay: Northern blot of ICAM-1 mRNA in C8161 cells; format: cell-based, human; conditions: Northern blot analysis
Method: ICAM-1 expression on the cell surface was measured by ELISA. Cells were treated with increasing concentrations of antisense oligonucleotides in the presence of 15 μg/ml Lipofectin for 4 hours at 37° C. ICAM-1 expression was induced by incubation with 5 ng/ml TNF-α for 16 hours. Cells were washed 3× in DPBS and fixed for 20 minutes in 2% formaldehyde. Cells were washed in DPBS, blocked with 2% BSA for 1 hour at 37° C. and incubated with ICAM-1 monoclonal antibody 84H10 (AMAC, Inc., Westbrook, Me.). Detection of bound antibody was determined by incubation with a biotinylated goat anti-mouse IgG followed by incubation with […] streptavidin and developed with chlorophenol red-β-D-galactopyranoside and quantified by absorbance at 575 nm. ICAM-1 mRNA levels were measured by Northern blot analysis.

ICAM-1 [1] = assay: ELISA of ICAM-1 expression in A431 cells; format: cell-based; conditions: human epidermal carcinoma A431 cells
Method: Expression of ICAM-1, VCAM-1 and ELAM-1 on the surface of cells can be quantitated using specific monoclonal antibodies in an ELISA. Cells are grown to confluence in 96 well microtiter plates. The cells are stimulated with either interleukin-1 or tumor necrosis factor for 4 to 8 hours to quantitate ELAM-1 and 8 to 24 hours to quantitate ICAM-1 and VCAM-1. Following the appropriate incubation time with the cytokine, the cells are gently washed three times with a buffered isotonic solution containing calcium and magnesium such as Dulbecco's phosphate buffered saline (D-PBS). The cells are then directly fixed on the microtiter plate with 1 to 2% paraformaldehyde diluted in D-PBS for 20 minutes at 25° C. The cells are washed again with D-PBS three times. Nonspecific binding sites on the microtiter plate are blocked with 2% bovine serum albumin in D-PBS for 1 hour at 37° C. Cells are incubated with the appropriate monoclonal antibody diluted in blocking solution for 1 hour at 37° C. Unbound antibody is removed by washing the cells three times with D-PBS. Antibody bound to the cells is detected by incubation with a 1:1000 dilution of biotinylated goat anti-mouse IgG (Bethesda Research Laboratories, Gaithersburg, Md.) in blocking solution for 1 hour at 37° C. Cells are washed three times with D-PBS and then incubated with a 1:1000 dilution of streptavidin conjugated to β-galactosidase (Bethesda Research Laboratories) for 1 hour at 37° C. The cells are washed three times with D-PBS for 5 minutes each. The amount of β-galactosidase bound to the specific monoclonal antibody is determined by developing the plate in a solution of 3.3 mM chlorophenolred-β-D-galactopyranoside, 50 mM sodium phosphate, 1.5 mM MgCl2; pH=7.2 for 2 to 15 minutes at 37° C. The concentration of the product is determined by measuring the absorbance at 575 nm in an ELISA microtiter plate reader. […]
Cells grown in 96-well plates were washed three times with Opti-MEM (GIBCO, Grand Island, N.Y.) prewarmed to 37° C. […] ICAM-1 expression was determined as described in Example 1. […]

ICAM-1 [2] = assay: ELISA screening for ICAM-1 expression in interleukin-1β-stimulated cells (HUVEC and A549); format: cell-based, human; conditions: for inhibition of ICAM-1 expression, relative activity in words: interleukin-1β-stimulated cells, two cell lines (HUVEC, A549); for inhibition of ICAM-1 expression after premixing with respective sense strand: premixed/prehybridized at equal molar concentrations with sense strand (ISIS 1575 or ISIS 2115)

Row | Substance | ICAM-1 mRNA levels (ICAM-1 mRNA) | inhibition of ICAM-1 expression (ICAM-1 [1]) | inhibition of ICAM-1 expression, relative activity in words (ICAM-1 [2]) | inhibition of ICAM-1 expression after premixing with respective sense strand (ICAM-1 [2])
1 | ISIS 1570: phosphorothioate, human ICAM-1 AUG Codon (64-81), SEQ ID NO 1, TGGGAGCCATAGCGAGGC (antisense dT*dG*dG*dG*dA*dG*dC*dC*dA*dT*dA*dG*dC*dG*dA*dG*dG*dC) | decreased ICAM-1 mRNA levels only slightly | inhibit ICAM-1 expression | most active | blocked the effects of ISIS 1570
2 | ISIS 1939: P=S, human ICAM-1 3′-Untranslated (1952-1971), SEQ ID NO 15, CCCCCACCACTTCCCCTCTC (antisense dC*dC*dC*dC*dC*dA*dC*dC*dA*dC*dT*dT*dC*dC*dC*dC*dT*dC*dT*dC) | markedly reduced | inhibit ICAM-1 expression | most active | completely blocked
